Measurements taken from US7632972B2, “Compounds and methods for treatment of cancer and modulation of programmed cell death for melanoma and other cancer cells” (The Board of Trustees of the University of Illionis, priority 2003, dated 2009).

What was measured:
Type in all cases: cell-based, human
MDA-MB-435 = assay: NCI 60 cell line screen (SRB), Breast Cancer
Text: (§1) The operation of this screen utilizes 60 different human tumor cell lines, representing leukemia, melanoma and cancers of the lung, colon, brain, ovary, breast, prostate, and kidney. The aim is to prioritize for further evaluation, synthetic compounds or natural product samples showing selective growth inhibition or cell killing of particular tumor cell lines. This screen is unique in that the complexity of a 60 cell line dose response produced by a given compound results in a biological response pattern which can be utilized in pattern recognition algorithms. Using these algorithms, it is possible to assign a putative mechanism of action to a test compound, or to determine that the response pattern is unique and not similar to that of any of the standard prototype compounds included in the NCl database (see DTP Overview tab). In addition, following characterization of various cellular molecular targets in the 60 cell lines, it may be possible to select compounds most likely to interact with a specific molecular target.
(§2) The human tumor cell lines of the cancer screening panel are grown in RPMI 1640 medium containing 5% fetal bovine serum and 2 mM L-glutamine. For a typical screening experiment, cells are inoculated into 96 well microtiter plates in 100 μL at plating densities ranging from 5,000 to 40,000 cells/well depending on the doubling time of individual cell lines. After cell inoculation, the microtiter plates are incubated at 37° C., 5% CO2, 95% air and 100% relative humidity for 24 h prior to addition of experimental drugs.
(§3) After 24 h, two plates of each cell line are fixed in situ with TCA, to represent a measurement of the cell population for each cell line at the time of drug addition (Tz). Experimental drugs are solubilized in dimethyl sulfoxide at 400-fold the desired final maximum test concentration and stored frozen prior to use. At the time of drug addition, an aliquot of frozen concentrate is thawed and diluted to twice the desired final maximum test concentration with complete medium containing 50 μg/ml gentamicin. Additional four, 10-fold or ½ log serial dilutions are made to provide a total of five drug concentrations plus control. Aliquots of 100 μl of these different drug dilutions are added to the appropriate microtiter wells already containing 100 μl of medium, resulting in the required final drug concentrations.
(§4) Following drug addition, the plates are incubated for an additional 48 h at 37° C., 5% CO2, 95% air, and 100% relative humidity. For adherent cells, the assay is terminated by the addition of cold TCA. Cells are fixed in situ by the gentle addition of 50 μl of cold 50% (w/v) TCA (final concentration, 10% TCA) and incubated for 60 minutes at 4° C. The supernatant is discarded, and the plates are washed five times with tap water and air dried. Sulforhodamine B (SRB) solution (100 μl) at 0.4% (w/v) in 1% acetic acid is added to each well, and plates are incubated for 10 minutes at room temperature. After staining, unbound dye is removed by washing five times with 1% acetic acid and the plates are air dried. Bound stain is subsequently solubilized with 10 mM trizma base, and the absorbance is read on an automated plate reader at a wavelength of 515 nm. For suspension cells, the methodology is the same except that the assay is terminated by fixing settled cells at the bottom of the wells by gently adding 50 μl of 80% TCA (final concentration, 16% TCA). Using the seven absorbance measurements [time zero, (Tz), control growth, (C), and test growth in the presence of drug at the five concentration levels (Ti)], the percentage growth is calculated at each of the drug concentrations levels. Percentage growth inhibition is calculated as: [(Ti−Tz)/(C−Tz)]×100 for concentrations for which Ti>/=Tz [(Ti−Tz)/Tz]×100 for concentrations for which Ti<Tz.
(§5) Three dose response parameters are calculated for each experimental agent. […]

NCI/ADR-RES = assay: NCI 60 cell line screen (SRB), Breast Cancer
Text: as §1, §2, §3, §4, §5

BT-549 = assay: NCI 60 cell line screen (SRB), Breast Cancer
Text: as §1, §2, §3, §4, §5

MDA-MB-231/ATCC = assay: NCI 60 cell line screen (SRB), Breast Cancer
Text: as §1, §2, §3, §4, §5

T-47D = assay: NCI 60 cell line screen (SRB), Breast Cancer
Text: as §1, §2, §3, §4, §5

HS 578T = assay: NCI 60 cell line screen (SRB), Breast Cancer
Text: as §1, §2, §3, §4, §5

MCF7 = assay: NCI 60 cell line screen (SRB), Breast Cancer
Text: as §1, §2, §3, §4, §5

CCRF-CEM = assay: NCI 60 cell line screen (SRB), Leukemia
Text: as §1, §2, §3, §4, §5

K-562 = assay: NCI 60 cell line screen (SRB), Leukemia
Text: as §1, §2, §3, §4, §5

[1] = read-out: LC50 (the source's name)

With `COc1cccc(CCNC(=O)CC(c2ccccc2)(c2ccccc2)c2ccccc2)c1` [Compound Z3] the GI50 (MDA-MB-435; MDA-MB-435) was 6.5 µM, the TGI (MDA-MB-435; MDA-MB-435) was greater than 1.00E−04 and the “Percent Growth” value (MDA-MB-435; MDA-MB-435, Log10 Concentration −4.0) was 28%. For the same molecule, the “Percent Growth” value (MDA-MB-435; MDA-MB-435, Log10 Concentration −5.0) was 40%, the “Percent Growth” value (MDA-MB-435; MDA-MB-435, Log10 Concentration −6.0) was 91% and the “Percent Growth” value (MDA-MB-435; MDA-MB-435, Log10 Concentration −7.0) was 109%. The “Percent Growth” value (MDA-MB-435; MDA-MB-435, Log10 Concentration −8.0) was 92%, the CC50 (MDA-MB-435; MDA-MB-435, read-out: LC50 (the source's name)) was greater than 100 µM and the GI50 (NCI/ADR-RES) was 5.26 µM. For the same molecule, the TGI (NCI/ADR-RES) was greater than 1.00E−04, the “Percent Growth” value (NCI/ADR-RES; Log10 Concentration −4.0) was 27% and the “Percent Growth” value (NCI/ADR-RES; Log10 Concentration −5.0) was 42%. For the same molecule, the “Percent Growth” value (NCI/ADR-RES; Log10 Concentration −6.0) was 69%, the “Percent Growth” value (NCI/ADR-RES; Log10 Concentration −7.0) was 93% and the “Percent Growth” value (NCI/ADR-RES; Log10 Concentration −8.0) was 69%. It also gave a CC50 (NCI/ADR-RES; [1]) greater than 100 µM, a GI50 (BT-549; BT-549) greater than 100 µM and a TGI (BT-549; BT-549) greater than 1.00E−04. The “Percent Growth” value (BT-549; BT-549, Log10 Concentration −4.0) was 69%, the “Percent Growth” value (BT-549; BT-549, Log10 Concentration −5.0) was 81% and the “Percent Growth” value (BT-549; BT-549, Log10 Concentration −6.0) was 107%. For the same molecule, the “Percent Growth” value (BT-549; BT-549, Log10 Concentration −7.0) was 126%, the “Percent Growth” value (BT-549; BT-549, Log10 Concentration −8.0) was 100% and the CC50 (BT-549; BT-549, read-out: LC50 (the source's name)) was greater than 100 µM. For the same molecule, the GI50 (MDA-MB-231/ATCC) was greater than 100 µM, the TGI (MDA-MB-231/ATCC) was greater than 1.00E−04 and the “Percent Growth” value (MDA-MB-231/ATCC; Log10 Concentration −4.0) was 147%. The “Percent Growth” value (MDA-MB-231/ATCC; Log10 Concentration −5.0) was 75%, the “Percent Growth” value (MDA-MB-231/ATCC; Log10 Concentration −6.0) was 59% and the “Percent Growth” value (MDA-MB-231/ATCC; Log10 Concentration −7.0) was 69%. For the same molecule, the “Percent Growth” value (MDA-MB-231/ATCC; Log10 Concentration −8.0) was 68%, the CC50 (MDA-MB-231/ATCC; [1]) was greater than 100 µM and the GI50 (T-47D) was greater than 100 µM. The TGI (T-47D) was greater than 1.00E−04, the “Percent Growth” value (T-47D; Log10 Concentration −4.0) was 84% and the “Percent Growth” value (T-47D; Log10 Concentration −5.0) was 55%. The “Percent Growth” value (T-47D; Log10 Concentration −6.0) was 78%, the “Percent Growth” value (T-47D; Log10 Concentration −7.0) was 108% and the “Percent Growth” value (T-47D; Log10 Concentration −8.0) was 78%. For the same molecule, the CC50 (T-47D; [1]) was greater than 100 µM, the GI50 (HS 578T; MS 578T) was greater than 100 µM and the TGI (HS 578T; MS 578T) was greater than 1.00E−04. For the same molecule, the “Percent Growth” value (HS 578T; MS 578T, Log10 Concentration −4.0) was 55%, the “Percent Growth” value (HS 578T; MS 578T, Log10 Concentration −5.0) was 85% and the “Percent Growth” value (HS 578T; MS 578T, Log10 Concentration −6.0) was 101%. The “Percent Growth” value (HS 578T; MS 578T, Log10 Concentration −7.0) was 126%, the “Percent Growth” value (HS 578T; MS 578T, Log10 Concentration −8.0) was 101% and the CC50 (HS 578T; [1]) was greater than 100 µM. For the same molecule, the GI50 (MCF7; MCF7) was 21.5 µM, the TGI (MCF7; MCF7) was greater than 1.00E−04 and the “Percent Growth” value (MCF7; MCF7, Log10 Concentration −4.0) was 31%. For the same molecule, the “Percent Growth” value (MCF7; MCF7, Log10 Concentration −5.0) was 60%, the “Percent Growth” value (MCF7; MCF7, Log10 Concentration −6.0) was 85% and the “Percent Growth” value (MCF7; MCF7, Log10 Concentration −7.0) was 116%. The “Percent Growth” value (MCF7; MCF7, Log10 Concentration −8.0) was 91%, the CC50 (MCF7; MCF7, read-out: LC50 (the source's name)) was greater than 100 µM and the GI50 (CCRF-CEM) was 8.16 µM. For the same molecule, the TGI (CCRF-CEM) was greater than 1.00E−04, the “Percent Growth” value (CCRF-CEM; Log10 Concentration −4.0) was 34% and the “Percent Growth” value (CCRF-CEM; Log10 Concentration −5.0) was 48%. For the same molecule, the “Percent Growth” value (CCRF-CEM; Log10 Concentration −6.0) was 74%, the “Percent Growth” value (CCRF-CEM; Log10 Concentration −7.0) was 94% and the “Percent Growth” value (CCRF-CEM; Log10 Concentration −8.0) was 62%. It also gave a CC50 (CCRF-CEM; [1]) greater than 100 µM, a GI50 (K-562; K-562) of 6.03 µM and a TGI (K-562; K-562) greater than 1.00E−04. The “Percent Growth” value (K-562; K-562, Log10 Concentration −4.0) was 32%, the “Percent Growth” value (K-562; K-562, Log10 Concentration −5.0) was 36% and the “Percent Growth” value (K-562; K-562, Log10 Concentration −6.0) was 100%. For the same molecule, the “Percent Growth” value (K-562; K-562, Log10 Concentration −7.0) was 100%, the “Percent Growth” value (K-562; K-562, Log10 Concentration −8.0) was 102% and the CC50 (K-562; K-562, read-out: LC50 (the source's name)) was greater than 100 µM.
